Measurements as given in patent US10800792B2, “Inhibitors of Bruton's tyrosine kinase and method of their use” (JANSSEN PHARMACEUTICA NV, priority 2015, dated 2020).
Where two headings read alike, the source gives them in different places.

Biological target: unphosphorylated-BTK kinase domain (UP-BTK), GST-tagged human BTK (389-659aa) (Homo sapiens (Human), UniProt Q06187)
Assay: BTK kinase Lanthascreen binding assay
Conditions: pIC50 = negative log of the IC50 in molar; for IC50: read-out: BTK_I_binding pIC50 (converted)
How it was run: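 Compound binding to the unphosphorylated kinase domain was monitored by displacement of a fluorescently labelled tracer in a Lanthascreen format. Potency is given as pIC50, the negative log of the molar IC50.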

[1] = unphosphorylated-BTK kinase domain, 50 nM Tracer 236, 60 minutes
[2] = Lanthascreen tracer competition, 60 minutes incubation

Chain of unphosphorylated-BTK kinase domain (UP-BTK), GST-tagged human BTK (389-659aa) (Q06187 389-659): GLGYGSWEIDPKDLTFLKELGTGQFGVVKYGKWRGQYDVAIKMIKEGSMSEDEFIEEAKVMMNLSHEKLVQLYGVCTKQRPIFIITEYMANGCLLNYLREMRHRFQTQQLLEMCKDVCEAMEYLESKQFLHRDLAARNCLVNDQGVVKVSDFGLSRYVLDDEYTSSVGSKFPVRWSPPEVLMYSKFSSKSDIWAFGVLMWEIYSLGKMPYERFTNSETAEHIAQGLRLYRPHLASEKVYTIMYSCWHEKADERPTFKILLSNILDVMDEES

| BTK_I_binding pIC50 [2] | Structure (SMILES) | also measured |
| --- | --- | --- |
| – | [2H]C([2H])([2H])N1CCC[C@@H](NC(=O)c2sc3nccc4c3c2NC(=O)N4c2ccc(Oc3ccccc3)cc2C)C1 (single isomer, unassigned) [Example 535, (R)-5-(*S)-(2-Methyl-4-phenoxyphenyl)-N-(1-trideuteriomethylpiperidin-3-yl)-4-oxo-4,5-dihydro-3H-1-thia-3,5,8-triazaacenaphthylene-2-carboxamide] | IC50 [1]: 0.0316 µM |
| – | CCS(=O)(=O)N1CCC[C@@H](NC(=O)c2sc3nccc4c3c2NC(=O)N4c2ccc(Oc3ccccc3)cc2C)C1 (single isomer, unassigned) [Example 539, (R)—N-(1-(Ethylsulfonyl)piperidin-3-yl)-5-(*S)-(2-methyl-4-phenoxyphenyl)-4-oxo-4,5-dihydro-3H-1-thia-3,5,8-triazaacenaphthylene-2-carboxamide] | BTK_I_binding pIC50 [1]: 7.2 |
| – | Cc1cc(Oc2ccccc2)ccc1N1C(=O)Nc2c(C(=O)N[C@@H]3CCCN(C(C)C)C3)sc3nccc1c23 (single isomer, unassigned) [Example 542, (R)—N-(1-Isopropylpiperidin-3-yl)-5-(*S)-(2-methyl-4-phenoxyphenyl)-4-oxo-4,5-dihydro-3H-1-thia-3,5,8-triazaacenaphthylene-2-carboxamide] | BTK_I_binding pIC50 [1]: 7.2 |
| – | Cc1cc(Oc2ccccc2)ccc1N1C(=O)Nc2c(C(=O)N[C@@H]3CCN(C(=O)/C=C/CN4C[C@@H]5OCCO[C@@H]5C4)C3)sc3nccc1c23 (single isomer, unassigned) [Example 555, 5-(*S)-(2-Methyl-4-phenoxyphenyl)-4-oxo-N—((R)-1-((E)-4-((4aR,7aS)-tetrahydro-2H-[1,4]dioxino[2,3-c]pyrrol-6(3H)-yl)but-2-enol)pyrrolidin-3-yl)-4,5-dihydro-3H-1-thia-3,5,8-triazaacenaphthylene-2-carboxamide] | BTK_I_binding pIC50 [1]: 8.1 |
| – | CC(C)(C)OC(=O)N1C[C@H](O)C[C@@H](NC(=O)c2sc3nccc4c3c2NC(=O)N4c2ccc(Oc3ccccc3)cc2)C1 (single isomer, unassigned) [Example 611] | IC50 [2]: 0.631 µM |
| 8.1 | C=CC(=O)N1CCC[C@@H](NC(=O)c2sc3nccc4c3c2NC(=O)N4c2cnc(Oc3ccccc3)cc2C)C1 (single isomer, unassigned) [Example 662, (R)—N-(1-Acryloylpiperidin-3-yl)-5-(*S)-(4-methyl-6-phenoxypyridin-3-yl)-4-oxo-4,5-dihydro-3H-1-thia-3,5,8-triazaacenaphthylene-2-carboxamide] | – |
| 8.0 | C=CC(=O)N1CC[C@@H](NC(=O)c2sc3nccc4c3c2NC(=O)N4c2cnc(Oc3ccccc3)cc2C)C1 (single isomer, unassigned) [Example 663, (R)—N-(1-Acryloylpyrrolidin-3-yl)-5-(*S)-(4-methyl-6-phenoxypyridin-3-yl)-4-oxo-4,5-dihydro-3H-1-thia-3,5,8-triazaacenaphthylene-2-carboxamide] | – |
| 7.6 | C=CC(=O)N1CC[C@@H](NC(=O)c2sc3nccc4c3c2NC(=O)N4c2cnc(Oc3ccccc3)nc2C)C1 (single isomer, unassigned) [Example 664, (R)—N-(1-Acryloylpyrrolidin-3-yl)-5-(*S)-(4-methyl-2-phenoxypyrimidin-5-yl)-4-oxo-4,5-dihydro-3H-1-thia-3,5,8-triazaacenaphthylene-2-carboxamide] | – |
| 6.3 | C=CC(=O)N1CC[C@@H](NC(=O)c2sc3nccc4c3c2NC(=O)N4c2ccc(Oc3ccccc3)nc2C)C1 (single isomer, unassigned) [Example 666, (R)—N-(1-Acryloylpyrrolidin-3-yl)-5-(*R)-(2-methyl-6-phenoxypyridin-3-yl)-4-oxo-4,5-dihydro-3H-1-thia-3,5,8-triazaacenaphthylene-2-carboxamide] | – |
| – | C=CC(=O)N[C@H]1COC[C@H]1NC(=O)c1sc2nccc3c2c1NC(=O)N3c1cnc(Oc2ccccc2)cc1C (single isomer, unassigned) [Example 668, N-(cis-4-Acrylamidotetrahydrofuran-3-yl)-5-(*)-(4-methyl-6-phenoxypyridin-3-yl)-4-oxo-4,5-dihydro-3H-1-thia-3,5,8-triazaacenaphthylene-2-carboxamide] | IC50 [2]: 0.0158 µM |
| 7.6 | C=CC(=O)N1CCC[C@@H](NC(=O)c2sc3nccc4c3c2NC(=O)N4c2ccnc(-c3ccccc3)c2C)C1 (single isomer, unassigned) [Example 676, (R)—N-(1-Acryloylpiperidin-3-yl)-5-(*R)-(3-methyl-2-phenylpyridin-4-yl)-4-oxo-4,5-dihydro-3H-1-thia-3,5,8-triazaacenaphthylene-2-carboxamide] | – |
| – | Cc1cc(Oc2ccccc2)ccc1N1C(=O)Nc2c(C(=O)N[C@@H]3CCCN(C(=O)/C=C/CN4C[C@@H]5OCCO[C@@H]5C4)C3)sc3nccc1c23 (single isomer, unassigned) [Example 684, 5-(*S)-(2-Methyl-4-phenoxyphenyl)-4-oxo-N—((R)-1-((E)-4-((4aR,7aS)-tetrahydro-2H-[1,4]dioxino[2,3-c]pyrrol-6(3H)-yl)but-2-enoyl)piperidin-3-yl)-4,5-dihydro-3H-1-thia-3,5,8-triazaacenaphthylene-2-carboxamide] | IC50 [2]: 0.0316 µM |
| 6.8 | Cc1cc(Oc2ccccc2)ncc1N1C(=O)Nc2c(C(=O)N[C@@H]3CCNC3)sc3nccc1c23 (single isomer, unassigned) [Example 702, (R)-5-(*S)-(4-Methyl-6-phenoxypyridin-3-yl)-4-oxo-N-(pyrrolidin-3-yl)-4,5-dihydro-3H-1-thia-3,5,8-triazaacenaphthylene-2-carboxamide] | – |
| 6.3 | Cc1nc(Oc2ccccc2)ncc1N1C(=O)Nc2c(C(=O)N[C@@H]3CCNC3)sc3nccc1c23 (single isomer, unassigned) [Example 715, (R)-5-(*S)-(4-Methyl-2-phenoxypyrimidin-5-yl)-4-oxo-N-(pyrrolidin-3-yl)-4,5-dihydro-3H-1-thia-3,5,8-triazaacenaphthylene-2-carboxamide] | – |
| 6.4 | Cc1nc(Oc2ccccc2)ccc1N1C(=O)Nc2c(C(=O)N[C@@H]3CCNC3)sc3nccc1c23 (single isomer, unassigned) [Example 717, (R)-5-(*S)-(2-Methyl-6-phenoxypyridin-3-yl)-4-oxo-N-(pyrrolidin-3-yl)-4,5-dihydro-3H-1-thia-3,5,8-triazaacenaphthylene-2-carboxamide] | – |
| 6.1 | C=CC(=O)N1CC[C@@H](NC(=O)c2sc3nccc4c3c2NC(=O)N4c2cnc(Oc3ccccc3)nc2C)C1 (single isomer, unassigned) [Example 724, (R)—N-(1-Acryloylpyrrolidin-3-yl)-5-(*R)-(4-methyl-2-phenoxypyrimidin-5-yl)-4-oxo-4,5-dihydro-3H-1-thia-3,5,8-triazaacenaphthylene-2-carboxamide] | – |
| <6 | Cc1nc(Oc2ccccc2)ccc1N1C(=O)Nc2c(C(=O)N[C@@H]3CCNC3)sc3nccc1c23 (single isomer, unassigned) [Example 728, (R)-5-(*R)-(2-Methyl-6-phenoxypyridin-3-yl)-4-oxo-N-(pyrrolidin-3-yl)-4,5-dihydro-3H-1-thia-3,5,8-triazaacenaphthylene-2-carboxamide] | – |
| – | C=CC(=O)N[C@H]1COC[C@H]1NC(=O)c1sc2nccc3c2c1NC(=O)N3c1cnc(Oc2ccccc2)cc1C (single isomer, unassigned) [Example 745, N-((3*S,4*R)-4-Acrylamidotetrahydrofuran-3-yl)-5-(*S)-(4-methyl-6-phenoxypyridin-3-yl)-4-oxo-4,5-dihydro-3H-1-thia-3,5,8-triazaacenaphthylene-2-carboxamide] | IC50 [2]: 0.00794 µM |
| 8.1 | C=CC(=O)N1CCC[C@@H](NC(=O)c2sc3nccc4c3c2NC(=O)N4c2cnc(Oc3ccccc3)nc2C)C1 (single isomer, unassigned) [Example 746, (R)—N-(1-Acryloylpiperidin-3-yl)-5-(*S)-(4-methyl-2-phenoxypyrimidin-5-yl)-4-oxo-4,5-dihydro-3H-1-thia-3,5,8-triazaacenaphthylene-2-carboxamide] | – |
| – | C=CC(=O)N[C@@H]1COC[C@@H]1NC(=O)c1sc2nccc3c2c1NC(=O)N3c1cnc(Oc2ccccc2)cc1C (single isomer, unassigned) [Example 752, N-((*3R,*4S)-4-Acrylamidotetrahydrofuran-3-yl)-5-(*S)-(4-methyl-6-phenoxypyridin-3-yl)-4-oxo-4,5-dihydro-3H-1-thia-3,5,8-triazaacenaphthylene-2-carboxamide] | IC50 [2]: 0.398 µM |

| Structure (SMILES) | BTK_I_binding pIC50 [2] | also measured |
| --- | --- | --- |
| C=CC(=O)N1CCC[C@@H](NC(=O)c2sc3nccc4c3c2NC(=O)N4c2ccc(OC3CCC3)cc2C)C1 (single isomer, unassigned) [Example 609, (R)—N-(1-Acryloylpiperidin-3-yl)-5-(*S)-(4-cyclobutoxy-2-methylphenyl)-4-oxo-4,5-dihydro-3H-1-thia-3,5,8-triazaacenaphthylene-2-carboxamide] | 6.3 | – |
| C=CC(=O)N1CCC[C@@H](NC(=O)c2sc3nccc4c3c2NC(=O)N4c2ccc(OC3CCC3)nc2C)C1 (single isomer, unassigned) [Example 682, (R)—N-(1-Acryloylpiperidin-3-yl)-5-(*S)-(6-cyclobutoxy-2-methylpyridin-3-yl)-4-oxo-4,5-dihydro-3H-1-thia-3,5,8-triazaacenaphthylene-2-carboxamide] | 7.3 | – |
| C=CC(=O)N1CCC[C@@H](NC(=O)c2sc3nccc4c3c2NC(=O)N4c2ccc(OC3CCC3)nc2C)C1 (single isomer, unassigned) [Example 736, (R)—N-(1-Acryloylpiperidin-3-yl)-5-(*R)-(6-cyclobutoxy-2-methylpyridin-3-yl)-4-oxo-4,5-dihydro-3H-1-thia-3,5,8-triazaacenaphthylene-2-carboxamide] | <6 | – |
